This note sets out measurements from ChEMBL document CHEMBL1152110, “Tetraazaacenaphthene and tetraazaphenalene derivatives: A new class of hepatoprotectants: Part IV” (1995).

Assay type in all cases: functional
Assay [1] deals with Rattus norvegicus. The experiment in a line: Hepatoprotective activity against thioacetamide-induced toxicity in rats at a dose of 6 mg/Kg dose (p.o. x 7 days), expressed as % protection afforded in glutamate pyruvate transaminase (GPT) levels.
The subject of assay [2] is Rattus norvegicus. The experiment in a line: Hepatoprotective activity against thioacetamide-induced toxicity in rats at a dose of 6 mg/Kg dose (p.o. x 7 days), expressed as % protection afforded in serum bilirubin levels.
Assay [3] concerns Rattus norvegicus. The experiment in a line: Hepatoprotective activity against thioacetamide-induced toxicity in rats at a dose of 6 mg/Kg dose (p.o. x 7 days) expressed as % protection afforded in […] (ALP) levels.
In assay [4] the test system is Rattus norvegicus. The experiment in a line: Hepatoprotective activity against thioacetamide-induced toxicity in rats at a dose of 6 mg/Kg dose (p.o. x 7 days), expressed as % protection afforded in glutamate oxaloacetate transaminase (GOT) levels.
Assay [5] deals with Rattus norvegicus. The experiment in a line: Hepatoprotective activity against thioacetamide-induced toxicity in rats at a dose of 6 mg/Kg dose (p.o. x 7 days), expressed as % protection afforded in […] (ALP) levels.

Consider `CCN1C(=O)C2C(=O)N(CC)C(=S)N3CCN(C1=S)C23` (stereo unspecified), for which the Protection in assay [1] came out at 34%; in assay [2], 31%; in assay [3], 22%; in assay [4], 20%.

As for `CCN1C(=N)C2C(=O)N(CC)C(=S)N3CCN(C1=S)C23` (stereo unspecified), the Protection came out at 87% in assay [1], 57% in assay [2], 17% in assay [3] and 50% in assay [4].

As to `CCO/C(O)=C(\C1=NCCN1)c1nnc(N)s1`, the Protection in assay [1] is reported as 51%; in assay [2] it was 53%; in assay [4] it was 33%; in assay [5], 19%.

Take `O=C1C2C(=O)N(c3ccccc3)C(=S)N3CCN(C(=S)N1c1ccccc1)C23` (stereo unspecified): the Protection stood at 18% in assay [1], 25% in assay [2], 20% in assay [3] and 27% in assay [4].

For `Cc1ccccc1N1C(=O)C2C(=O)N(c3ccccc3C)C(=O)N3CCN(C1=O)C23` (stereo unspecified), the Protection in assay [1] was 15%; in assay [2], 18%; in assay [3], 16%; in assay [4], 18%.

With `CC/N=C(/S)N1CCn2c1c(C#N)c(=O)n(CC)c2=S`, the Protection in assay [1] was 70%; in assay [2], 60%; in assay [3], 56%; in assay [4], 31%.

With `CCN1C(=N)C2C(=O)N(CC)C(=S)N3CCCN(C1=S)C23` (stereo unspecified), the Protection in assay [1] is recorded as 50%; in assay [2] it was 50%; in assay [3], 48%; in assay [4], 40%.

On to `CCO/C(O)=C(\C1=NCCCN1)c1nnc(N)s1`, for which the Protection in assay [1] is 50%; in assay [2], 22%; in assay [3], 38%; in assay [4] it was 26%.

SILYMARIN: the Protection in assay [1] stood at 47%; in assay [2], 61%; in assay [3], 47%; in assay [4] it was 50%.
